Assay [1] concerns the target T1, ST3Gal-II (Rattus norvegicus, UniProt Q11205).
T1 construct: purchased Calbiochem
T1 sequence (Q11205 1-350): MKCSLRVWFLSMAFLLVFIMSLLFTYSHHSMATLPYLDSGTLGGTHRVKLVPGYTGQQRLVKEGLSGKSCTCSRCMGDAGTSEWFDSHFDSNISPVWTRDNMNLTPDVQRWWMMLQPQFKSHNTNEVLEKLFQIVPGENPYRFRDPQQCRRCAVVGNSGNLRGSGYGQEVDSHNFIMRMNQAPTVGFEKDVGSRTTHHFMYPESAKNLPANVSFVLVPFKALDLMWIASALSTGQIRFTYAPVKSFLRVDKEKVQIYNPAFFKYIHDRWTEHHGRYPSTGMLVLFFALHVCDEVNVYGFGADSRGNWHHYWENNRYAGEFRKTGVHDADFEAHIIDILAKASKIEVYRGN
Description: Serial transfer of sialic acid from donor via 5′-CMP to acceptors (scheme-II). It is filed as biochemical. Conditions: 0.15 mM donor; 2 mM 5′-CMP with core-2 donors. How it is done: FIG. 3. Serial transfer of sialic acid using scheme-II was followed at increasing concentrations of acceptor D-Fucβ1,3GalNAcα-O-Bn. The donor used was either: i) 0.15 mM [9-^3H]CMP-NeuAc; or, ii) 0.15 mM [9-^3H]NeuAcα2,3Galβ1,3(4-FGlcNAcβ1,6)GalNAcα-O-Bn [9-^3H [2]] in the presence of 2.0 mM 5′-CMP, or iii) [9-^3H]NeuAcα2,3Galβ1,3(6-O-SulfoGlcNAcβ1,6)GalNAcα-O—Al [[9-^3H] [4]] in the presence of 2.0 mM 5′-CMP. In runs where [9-^3H [2]] was donor since both and [2] bind C18 cartridges, control runs were performed in the absence of D-Fucβ1,3GalNAcα-O-Bn to estimate the amount of [9-^3H]CMP-NeuAc formed under the experimental conditions. 80-85% of the radioactivity was transferred to CMP-NeuAc in these runs. The amount of CMP-NeuAc remaining in runs with was then subtracted from CMP-NeuAc radioactivity in the control run to determine the amount of sialylated. To complement this run, studies were also performed with [[9-^3H] […] In these runs, the amount of sialylated was determined by measuring radioactivity retained in the C18-cartridge. a. Equilibrium constant was 5.55 when CMP-[9-^3H]NeuAc was donor. b. ˜10-fold lower acceptor concentration was required for similar extents of reaction when CMP-[9-^3H]NeuAc was donor, compared to core-2 based donors and [4].
We tested the possibility that CMP-NeuAc formed above may be available for transfer to other acceptors using ST3Gal-II (scheme-II, FIG. 3). For this, three radiolabeled donors were prepared using methods described above: two were based on the mucin Core-2 structure ([[9-^3H] [1]] and [9-^3H]NeuAcα2,3Galβ1,3(6-O-SulfoGlcNAcβ1,6)GalNAcα-O—Al [[9-^3H] [4]]) while the third was based on the Globo glycolipid ([9-^3H] [3]). The transfer of [9-^3H]NeuAc from these sialylated donors to various T-hapten (Galβ1,3GalNAcα) and mucin core2-based glycoside acceptors in the presence of 5′-CMP and ST3Gal-II was assessed (Table III). All three […] of ST3Gal-II ([1], [3] and [4]) allowed formation of CMP-[9-^3H]NeuAc, and a diverse array of products.
The transfer of [9-^3H]NeuAc from [[9-^3H][1]] to D-Fucβ1,3GalNAcα-O-Bn in the presence of 5′-CMP and ST3Gal-II increased linearly in the first two hours and it reached saturation at 4 hours (FIG. 12), and thus the data in Table III (4 hours time point) represent equilibrium conditions. […] Further, diverse sialylated products can be formed using the same synthetic sialylated donor.
In order to compare the efficiency of individual reactions of scheme II, independent runs were performed where either 0.15 mM [9-^3H]CMP-NeuAc, 0.15 mM [9-^3H] [2] or 0.15 mM [9-^3H] [4] was the donor, and [5] was the acceptor (FIG. 3). 2 mM 5′-CMP was added in runs with core-2 donors and [4], and thus reverse sialylation of these molecules was feasible. Keq for transfer of sialic acid from CMP-NeuAc to [5] was 5.55 (FIG. 3a). […] (˜6 mM) or [9-^3H[4]] (˜6 mM). Thus, while the two-step mechanism results in lower conversion than CMP-NeuAc alone, the transfer of NeuAc still takes place at an appreciable rate.

In assay [2] the test system is MDA-MB-435. Kind of assay: Reversible sialyltransferase activity in cell extract. The note with it: MDA-MB-435 (breast) cell extract, 1.0 mM 5′-CMP, 16 h, pH 6.0. It is filed as biochemical, human. The source says:
(§1) Thus, [9-^3H[4]] was used as donor and D-Fucβ1,3GalNAcα-O-Bn as acceptor in the presence of 5′-CMP and solubilized cell extracts. Of the cells tested, human prostate cancer cell lines LNCaP and PC-3 contained significant reversible sialyltransferase activity.

The subject of assay [3] is T47D. Described as above. The note with it: T47D (breast) cell extract, 1.0 mM 5′-CMP, 16 h, pH 6.0. The format is biochemical, human.
Excerpt: as §1

Assay [4] deals with LS180. The description is as above. It is filed as biochemical, human. Conditions: LS180 (colon) cell extract, 1.0 mM 5′-CMP, 16 h, pH 6.0.
Excerpt: as §1

Assay [5] deals with LNCaP. The description is as above. Conditions: LNCaP (prostate) cell extract, 1.0 mM 5′-CMP, 16 h, pH 6.0. It is filed as biochemical, human.
Excerpt: as §1

For assay [6], the system named is MCF-7. The description is as above. The format is biochemical, human. The note with it: MCF-7 (breast) cell extract, 1.0 mM 5′-CMP, 16 h, pH 6.0.
Excerpt: as §1

The subject of assay [7] is HL60. The description is as above. The format is biochemical, human. Conditions: HL60 (leukemia) cell extract, 1.0 mM 5′-CMP, 16 h, pH 6.0.
Excerpt: as §1

Assay [8] concerns PC3. Described as above. The format is biochemical, human. Conditions: PC3 (prostate) cell extract, 1.0 mM 5′-CMP, 16 h, pH 6.0.
Excerpt: as §1

For assay [9], the system named is MDA-MB231. The description is as above. It is filed as biochemical, human. The note with it: MDA-MB231 (breast) cell extract, 1.0 mM 5′-CMP, 16 h, pH 6.0.
Excerpt: as §1

Assay [10] concerns ZR75-1. The description is as above. Conditions: ZR75-1 (breast) cell extract, 1.0 mM 5′-CMP, 16 h, pH 6.0. The format is biochemical, human.
Excerpt: as §1

The target in assay [11] is T1, ST3Gal-II. Kind of assay: CMP-NeuAc / UMP-NeuAc formed by reverse sialylation as sialyl donor, ST3Gal-II activity. The format is biochemical. Conditions: acceptor 2.5 mM D-Fucβ1,3GalNAcα-O-Bn; donor [3] 0.0625 mM, 8 mM 5′-CMP or 5′-UMP, 4 h, blank subtracted.
Assay [12] concerns the target T2, ST3Gal-III (Rattus norvegicus, UniProt Q02734).
T2 construct: purchased Calbiochem
T2 sequence (Q02734 1-374): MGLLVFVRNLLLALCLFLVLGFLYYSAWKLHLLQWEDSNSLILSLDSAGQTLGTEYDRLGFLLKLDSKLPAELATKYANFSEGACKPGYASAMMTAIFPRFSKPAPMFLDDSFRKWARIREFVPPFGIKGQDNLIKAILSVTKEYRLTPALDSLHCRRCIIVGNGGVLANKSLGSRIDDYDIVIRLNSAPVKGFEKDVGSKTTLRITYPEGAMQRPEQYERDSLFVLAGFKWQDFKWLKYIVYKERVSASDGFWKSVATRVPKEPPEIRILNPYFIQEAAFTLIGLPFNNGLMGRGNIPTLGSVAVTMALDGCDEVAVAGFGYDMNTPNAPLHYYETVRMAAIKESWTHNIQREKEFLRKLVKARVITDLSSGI
Kind of assay: CMP-NeuAc / UMP-NeuAc formed by reverse sialylation as sialyl donor, ST3Gal-III activity. It is filed as biochemical. Conditions: acceptor 2.5 mM 4-O-MeGalβ1,4GlcNAcβ-O-Bn; donor [3] 0.0625 mM, 8 mM 5′-CMP or 5′-UMP, ST3Gal-II plus ST3Gal-III, 4 h.

The target of assay [13] is T3, ST6Gal-I (Rattus norvegicus, UniProt P13721).
T3 construct: purchased Calbiochem
T3 sequence (P13721 1-403): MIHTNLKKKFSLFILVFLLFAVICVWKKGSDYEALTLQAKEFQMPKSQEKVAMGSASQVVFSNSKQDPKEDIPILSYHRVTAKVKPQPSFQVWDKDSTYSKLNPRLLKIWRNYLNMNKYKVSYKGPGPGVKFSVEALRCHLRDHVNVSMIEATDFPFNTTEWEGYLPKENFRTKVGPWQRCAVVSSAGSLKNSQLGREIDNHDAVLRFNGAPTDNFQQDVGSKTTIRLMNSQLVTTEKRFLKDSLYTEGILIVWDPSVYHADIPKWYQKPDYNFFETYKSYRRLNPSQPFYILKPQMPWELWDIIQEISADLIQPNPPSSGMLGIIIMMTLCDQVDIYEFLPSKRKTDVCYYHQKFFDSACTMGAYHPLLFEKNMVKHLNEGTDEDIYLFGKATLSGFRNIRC
Description: CMP-NeuAc / UMP-NeuAc formed by reverse sialylation as sialyl donor, ST6Gal-I activity. It is filed as biochemical. Conditions: acceptor 2.5 mM Galβ1,4GlcNAcβ-O-Bn; donor [3] 0.0625 mM, 8 mM 5′-CMP or 5′-UMP, ST3Gal-II plus ST6GalI, 4 h.

On to “[9-^3H]NeuAcα2,3Galβ1,3(6-O-SulfoGlcNAcβ1,6)GalNAcα-O—Al [[4]]”, for which the “amount of acceptor [5] required for comparable transfer” value in assay [1] is around 6 mM. The “Transfer of [9-3H]NeuAc from [9-3H[4]] to [5]” value was found to be 0.69 CPM × 10^−3/mg protein in assay [2]; 0.52 CPM × 10^−3/mg protein in assay [3]; 0.01 CPM × 10^−3/mg protein in [4]; 19.89 CPM × 10^−3/mg protein in assay [5]; 0.57 CPM × 10^−3/mg protein in assay [6]; 0.76 CPM × 10^−3/mg protein in assay [7]. Also, the figures for the “Transfer of [9-3H]NeuAc from [9-3H[4]] to [5]” value in assay [8], in assay [9] and in assay [10] were 4.72 CPM × 10^−3/mg protein, 0.09 CPM × 10^−3/mg protein and 1.32 CPM × 10^−3/mg protein, respectively.
On to `CC(=O)N[C@H]1[C@H]([C@H](O)[C@H](O)CO)O[C@](OP(=O)(O)OC[C@H]2O[C@@H](n3ccc(N)nc3=O)[C@H](O)[C@@H]2O)(C(=O)O)C[C@@H]1O` [CMP-NeuAc, reference compound], for which the “Incorporation of [9-3H]NeuAc into the acceptor, ST3Gal-II activity” value in assay [11] is listed as 134122 CPM. Further, the “Incorporation of [9-3H]NeuAc into the acceptor, ST3Gal-III activity” value in [12] worked out at 59531 CPM. For the same compound, the “Incorporation of [9-3H]NeuAc into the acceptor, ST6Gal-I activity” value in [13] is 15066 CPM. For the same compound, the “amount of acceptor [5] required for comparable transfer” value in [1] is 0.6 mM.

Values taken from patent US8278072B1, “Method for synthesis of sialylated products using reversible sialylation” (Health Research, Inc., priority 2007, dated 2012).
